Experimental findings from patent publication US20250281424A1 (New York Blood Center, Inc, priority 2020, published 2025) are described below.

In the test the target is T1, human PF4 (Homo sapiens, UniProt P02776).
T1 construct: PF4 is a 70 amino acid, lysine-rich 7.8 kDa platelet-specific protein; made in house; host or cells: Escherichia coli BL21DE3 pLysS (pT7-7) and/or Drosophila S2 cells
T1 sequence (P02776 32-101): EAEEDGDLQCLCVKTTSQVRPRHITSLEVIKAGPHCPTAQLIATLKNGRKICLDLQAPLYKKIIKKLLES
Kind of test: Inhibition of PF4 tetramer formation (BS3 cross-linking, SDS-PAGE). The following applies: for inhibition at 5 µM: 5 μM inhibitor; for inhibition at 5 µM / inhibition at 10 µM / inhibition at 1 µM / inhibition at 3 µM: read-out: % inhibition of PF4 tetramer formation at single concentration of inhibitor; for inhibition at 10 µM: 10 μM inhibitor (column A); for IC50: read-out: IC50 of PF4 tetramer formation inhibition; for inhibition at 1 µM: 1 μM inhibitor; for inhibition at 3 µM: 3 μM inhibitor (column A). In kind it is biochemical. A digest of the protocol:
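Monomer, dimer, trimer and tetramer fractions were quantified by densitometry after reducing 12% SDS-PAGE of BS3-cross-linked (0.2 mM, 30 min, room temperature) PF4. Before cross-linking, 10 μg/ml E. coli-expressed human WT PF4 in PBS was exposed to compound for 15 min at 37° C or 60 min at room temperature; controls lacked compound.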

Consider `CC(C)(C)OC(=O)N1CCC[C@@H]1C(=O)C1C(=O)c2ccc(S(=O)(=O)c3ccc4c(c3)C(=O)C(C(=O)[C@H]3CCCN3C(=O)OC(C)(C)C)C4=O)cc2C1=O` (stereo partly drawn) [Example 162, tert-butyl (2R)-2-[5-({2-[(2R)-1-[(tert-butoxy)carbonyl]pyrrolidine-2-carbonyl]-1,3-dioxo-2,3-dihydro-1H-inden-5-yl}sulfonyl)-1,3-dioxo-2,3-dihydro-1H-indene-2-carbonyl]pyrrolidine-1-carboxylate], for which the inhibition at 5 µM amounted to 86%, the inhibition at 10 µM came out at 94% and the IC50 (usually the point on the concentration scale where inhibition reaches its midpoint) is 2.6 µM.

Regarding `O=C(c1ccc2c(c1)C(=O)C(C(=O)NCc1ccco1)C2=O)c1ccc2c(c1)C(=O)C(C(=O)NCc1ccco1)C2=O` (stereo not shown) [Example 19, 5,5′-carbonylbis(1,3-dioxo-indan-2-carboxylic acid (furan-2-ylmethyl)-amide)], the inhibition at 5 µM amounted to 29% and the inhibition at 10 µM came to 56%.

As for `COCCOCCC(=O)C1C(=O)c2ccc(Oc3ccc4c(c3)C(=O)C(C(=O)CCOCCOC)C4=O)cc2C1=O` (stereo not shown) [Example 383, 2-[3-(2-methoxyethoxy)propanoyl]-5-({2-[3-(2-methoxyethoxy)propanoyl]-1,3-dioxo-2,3-dihydro-1H-inden-5-yl}oxy)-2,3-dihydro-1H-indene-1,3-dione], the inhibition at 1 µM stood at 20% and the inhibition at 3 µM worked out at 45%.

Regarding `O=C(O)CCNC(=O)C1C(=O)c2ccc(Oc3ccc4c(c3)C(=O)C(C(=O)NCCC(=O)O)C4=O)cc2C1=O` (stereo not shown) [Example 305, 3-{[5-({2-[(2-carboxyethyl)carbamoyl]-1,3-dioxo-2,3-dihydro-1H-inden-5-yl}oxy)-1,3-dioxo-2,3-dihydro-1H-inden-2-yl]formamido}propanoic acid], the inhibition at 1 µM was 13% and the inhibition at 3 µM stood at 50%.

`COC(=O)N1CCC[C@H]1C(=O)C1C(=O)c2ccc(C(=O)c3ccc4c(c3)C(=O)C(C(=O)[C@@H]3CCCN3C(=O)OC)C4=O)cc2C1=O` (stereo partly drawn) [Example 114, methyl (2S)-2-(5-{2-[(2S)-1-(methoxycarbonyl)pyrrolidine-2-carbonyl]-1,3-dioxo-2,3-dihydro-1H-indene-5-carbonyl}-1,3-dioxo-2,3-dihydro-1H-indene-2-carbonyl)pyrrolidine-1-carboxylate]: the inhibition at 5 µM amounted to 76%, the inhibition at 10 µM was determined as 91% and the IC50 is 2.5 µM.

In the case of `O=C1c2ccc(Oc3ccc4c(c3)C(=O)C(C(=O)[C@H]3CCCN3)C4=O)cc2C(=O)C1C(=O)[C@@H]1CCNC1` (stereo partly drawn) [Example 356, 5-({1,3-dioxo-2-[(3R)-pyrrolidine-3-carbonyl]-2,3-dihydro-1H-inden-5-yl}oxy)-2-[(2R)-pyrrolidine-2-carbonyl]-2,3-dihydro-1H-indene-1,3-dione], the inhibition at 1 µM came out at 18% and the inhibition at 3 µM was 55%.

Turning to `CSCCC(=O)C1C(=O)c2ccc(S(=O)(=O)c3ccc4c(c3)C(=O)C(C(=O)CCSC)C4=O)cc2C1=O` (stereo not shown) [Example 278, 2-[3-(methylsulfanyl)propanoyl]-5-({2-[3-(methylsulfanyl)propanoyl]-1,3-dioxo-2,3-dihydro-1H-inden-5-yl}sulfonyl)-2,3-dihydro-1H-indene-1,3-dione], the inhibition at 1 µM stood at 1%, the inhibition at 3 µM worked out at 18% and the IC50 amounted to 3 µM.

`CS(=O)(=O)N1CCC(NC(=O)C2C(=O)c3ccc(Oc4ccc5c(c4)C(=O)C(C(=O)NC4CCN(S(C)(=O)=O)CC4)C5=O)cc3C2=O)CC1` (stereo not shown) [Example 369, N-(1-methanesulfonylpiperidin-4-yl)-5-({2-[(1-methanesulfonylpiperidin-4-yl)carbamoyl]-1,3-dioxo-2,3-dihydro-1H-inden-5-yl}oxy)-1,3-dioxo-2,3-dihydro-1H-indene-2-carboxamide]: the inhibition at 1 µM was found to be 1% and the inhibition at 3 µM amounted to 21%.

For `O=C(c1ccc2c(c1)C(=O)C(C(=S)NC1CC1)C2=O)c1ccc2c(c1)C(=O)C(C(=S)NC1CC1)C2=O` (stereo not shown) [Example 328, N-cyclopropyl-5-[2-(cyclopropylcarbamothioyl)-1,3-dioxo-2,3-dihydro-1H-indene-5-carbonyl]-1,3-dioxo-2,3-dihydro-1H-indene-2-carbothioamide], the inhibition at 1 µM was determined as 16% and the inhibition at 3 µM came to 26%.

Regarding `CC(C)(C)CC(=O)NCC(=O)C1C(=O)c2ccc(S(=O)(=O)c3ccc4c(c3)C(=O)C(C(=O)CNC(=O)CC(C)(C)C)C4=O)cc2C1=O` (stereo not shown) [Example 186, N-{2-[5-({2-[2-(3,3-dimethylbutanamido)acetyl]-1,3-dioxo-2,3-dihydro-1H-inden-5-yl}sulfonyl)-1,3-dioxo-2,3-dihydro-1H-inden-2-yl]-2-oxoethyl}-3,3-dimethylbutanamide], the inhibition at 5 µM turned out to be 95%, the inhibition at 10 µM worked out at 95% and the IC50 was 2.6 µM.

In the case of `CC(C)OCC(=O)C1C(=O)c2ccc(Oc3ccc4c(c3)C(=O)C(C(=O)COC(C)C)C4=O)cc2C1=O` (stereo not shown) [Example 378, 5-({1,3-dioxo-2-[2-(propan-2-yloxy)acetyl]-2,3-dihydro-1H-inden-5-yl}oxy)-2-[2-(propan-2-yloxy)acetyl]-2,3-dihydro-1H-indene-1,3-dione], the inhibition at 1 µM came out at 39% and the inhibition at 3 µM was determined as 69%.

`C=C1C[C@@H](C(=O)C2C(=O)c3ccc(C(=O)c4ccc5c(c4)C(=O)C(C(=O)[C@@H]4CC(=C)CN4C(=O)OC(C)(C)C)C5=O)cc3C2=O)N(C(=O)OC(C)(C)C)C1` (stereo partly drawn) [Example 133, tert-butyl (2S)-2-(5-{2-[(2S)-1-[(tert-butoxy)carbonyl]-4-methylidenepyrrolidine-2-carbonyl]-1,3-dioxo-2,3-dihydro-1H-indene-5-carbonyl}-1,3-dioxo-2,3-dihydro-1H-indene-2-carbonyl)-4-methylidenepyrrolidine-1-carboxylate]: the inhibition at 5 µM was determined as 66%, the inhibition at 10 µM came out at 88% and the IC50 is roughly 6 µM.

With `COCCOCCN(CC(=O)C1C(=O)c2ccc(Oc3ccc4c(c3)C(=O)C(C(=O)CN(CCOCCOC)C(=O)OC(C)(C)C)C4=O)cc2C1=O)C(=O)OC(C)(C)C` (stereo not shown) [Example 390, tert-butyl N-{2-[5-({2-[2-(11,11-dimethyl-9-oxo-2,5,10-trioxa-8-azadodecan-8-yl)acetyl]-1,3-dioxo-2,3-dihydro-1H-inden-5-yl}oxy)-1,3-dioxo-2,3-dihydro-1H-inden-2-yl]-2-oxoethyl}-N-[2-(2-methoxyethoxy)ethyl]carbamate], the inhibition at 1 µM was 27% and the inhibition at 3 µM was 31%.

Turning to `CCC(=O)C1C(=O)c2ccc(Oc3ccc4c(c3)C(=O)C(C(=O)CC)C4=O)cc2C1=O` (stereo not shown) [Example 323, 5-[(1,3-dioxo-2-propanoyl-2,3-dihydro-1H-inden-5-yl)oxy]-2-propanoyl-2,3-dihydro-1H-indene-1,3-dione], the inhibition at 1 µM stood at 7% and the inhibition at 3 µM came to 18%.

For the compound `CSCC[C@H](NC(=O)OC(C)(C)C)C(=O)C1C(=O)c2ccc(Oc3ccc4c(c3)C(=O)C(C(=O)[C@H](CCSC)NC(=O)OC(C)(C)C)C4=O)cc2C1=O` (stereo partly drawn) [Example 270, tert-butyl N-[(2S)-1-[5-({2-[(2S)-2-{[(tert-butoxy)carbonyl]amino}-4-(methylsulfanyl)butanoyl]-1,3-dioxo-2,3-dihydro-1H-inden-5-yl}oxy)-1,3-dioxo-2,3-dihydro-1H-inden-2-yl]-4-(methylsulfanyl)-1-oxobutan-2-yl]carbamate], the inhibition at 1 µM turned out to be 10% and the inhibition at 3 µM stood at 24%.

In the case of `COCCOCCC(=O)C1C(=O)c2ccc(C(=O)c3ccc4c(c3)C(=O)C(C(=O)CCOCCOC)C4=O)cc2C1=O` (stereo not shown) [Example 382, 2-[3-(2-methoxyethoxy)propanoyl]-5-{2-[3-(2-methoxyethoxy)propanoyl]-1,3-dioxo-2,3-dihydro-1H-indene-5-carbonyl}-2,3-dihydro-1H-indene-1,3-dione], the inhibition at 1 µM was found to be 20%, the inhibition at 3 µM was determined as 70% and the concentration for half-maximal inhibition (IC50) was found to be 0.29 µM.

`CC(C)CCCC(=O)C1C(=O)c2ccc(C(c3ccc4c(c3)C(=O)C(C(=O)CCCC(C)C)C4=O)(C(F)(F)F)C(F)(F)F)cc2C1=O` (stereo not shown) [Example 194, 5-{1,1,1,3,3,3-hexafluoro-2-[2-(5-methylhexanoyl)-1,3-dioxo-2,3-dihydro-1H-inden-5-yl]propan-2-yl}-2-(5-methylhexanoyl)-2,3-dihydro-1H-indene-1,3-dione]: the concentration for half-maximal inhibition (IC50) is roughly 1.5 µM.

Regarding `C[C@H]1C[C@@H](C(=O)C2C(=O)c3ccc(S(=O)(=O)c4ccc5c(c4)C(=O)C(C(=O)[C@@H]4C[C@H](C)CN4C(=O)OC(C)(C)C)C5=O)cc3C2=O)N(C(=O)OC(C)(C)C)C1` (stereo partly drawn) [Example 224, tert-butyl (2S,4S)-2-[5-({2-[(2S,4S)-1-[(tert-butoxy)carbonyl]-4-methylpyrrolidine-2-carbonyl]-1,3-dioxo-2,3-dihydro-1H-inden-5-yl}sulfonyl)-1,3-dioxo-2,3-dihydro-1H-indene-2-carbonyl]-4-methylpyrrolidine-1-carboxylate], the inhibition at 5 µM was 100%, the inhibition at 10 µM was 95% and the half-inhibitory concentration (IC50) amounted to 2.2 µM.

On to `O=C(NC1CC1)C1C(=O)c2ccc(C(c3ccc4c(c3)C(=O)C(C(=O)NC3CC3)C4=O)(C(F)(F)F)C(F)(F)F)cc2C1=O` (stereo not shown) [Example 108, N-cyclopropyl-5-{2-[2-(cyclopropylcarbamoyl)-1,3-dioxo-2,3-dihydro-1H-inden-5-yl]-1,1,1,3,3,3-hexafluoropropan-2-yl}-1,3-dioxo-2,3-dihydro-1H-indene-2-carboxamide], for which the IC50 is 5.4 µM.
